Data set [1] is described as follows: Cytotoxicity assay in MT-4 cells (MTT method). It counts as cell-based, human. To be noted: human; mock-infected MT-4 cells, 96 h, MTT method; read-out: CC50: compound concentration required to reduce the viability of mock-infected MT-4 cells by 50 %. As for the experimental part: (§1) Cell line and viruses were purchased from the American Type Culture Collection (ATCC). The absence of mycoplasma contamination was checked periodically by the Hoechst staining method. Cell line supporting the multiplication of human immunodeficiency virus type-1 (HIV-1) was the CD4+ human T-cells containing an integrated HTLV-1 genome (MT-4). Cytotoxicity assays were run in parallel with antiviral assays. Exponentially growing MT-4 cells were seeded at an initial density of 1 × 10^5 cells/ml in 96-well plates in RPMI-1640 medium, supplemented with 10 % fetal bovine serum (FBS), 100 units/ml penicillin G, and 100 μg/ml streptomycin. Cell cultures were then incubated at 37 °C in a humidified 5 % CO2 atmosphere in the absence or presence of serial dilutions of test compounds. Cell viability was determined after 96 h at 37 °C by the 3-(4,5-dimethylthiazol-2-yl)-2,5-diphenyl-tetrazolium bromide (MTT) method (Pauwels et al., [1988]).

The test system of a further data set is HIV-1IIIB. Briefly: Anti-HIV-1 assay: inhibition of virus-induced cytopathogenicity in MT-4 cells (MTT method). Conditions: MT-4 cells infected with HIV-1IIIB, m.o.i. 0.01, 4-day incubation, read-out: EC50: compound concentration required to achieve 50 % protection of MT-4 cells from the HIV-1-induced cytopathogenicity. In kind it is cell-based, human immunodeficiency virus type-1. From the text: Cell line and viruses were purchased from the American Type Culture Collection (ATCC). The absence of mycoplasma contamination was checked periodically by the Hoechst staining method. Cell line supporting the multiplication of human immunodeficiency virus type-1 (HIV-1) was the CD4+ human T-cells containing an integrated HTLV-1 genome (MT-4).
Compound’s activity against HIV-1 was based on inhibition of virus-induced cytopathogenicity in MT-4 cell acutely infected with a multiplicity of infection (m.o.i.) of 0.01. In brief, 50 μl of RPMI containing 1 × 10^4 MT-4 cells were added to each well of flat-bottom microtitre trays, containing 50 μl of RPMI with or without serial dilutions of test compounds. Then, 20 μl of a HIV-1 suspension containing 100 CCID50 was added. After a 4-day incubation at 37 °C, cell viability was determined by the MTT method (Pauwels et al., [1988]).

The test system of a further data set is MT-4 cells. Briefly: Cytotoxicity assay in MT-4 cells (MTT method). It counts as cell-based, human. As for the experimental part:
as §1

The next data set has as its target T1, 5-HT1A receptor (Rattus norvegicus, UniProt P19327).
T1 construct: Ligand studies with native 5-HT1A receptor; from tissue
T1 sequence (P19327 1-422): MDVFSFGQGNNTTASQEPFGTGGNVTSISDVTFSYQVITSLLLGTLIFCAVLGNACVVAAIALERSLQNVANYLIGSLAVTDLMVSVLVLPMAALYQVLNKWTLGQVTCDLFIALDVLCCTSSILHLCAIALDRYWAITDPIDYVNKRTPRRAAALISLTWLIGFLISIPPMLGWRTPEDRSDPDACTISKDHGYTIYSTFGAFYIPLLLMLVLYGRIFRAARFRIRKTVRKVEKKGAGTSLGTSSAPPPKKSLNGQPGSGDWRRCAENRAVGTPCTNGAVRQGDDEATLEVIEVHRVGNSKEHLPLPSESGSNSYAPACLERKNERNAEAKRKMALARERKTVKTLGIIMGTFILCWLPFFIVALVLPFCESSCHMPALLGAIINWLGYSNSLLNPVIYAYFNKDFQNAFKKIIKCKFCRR
Put plainly: In vitro ligand binding assay with native 5-HT1A receptor. How it is done: Ligand studies with native 5-HT1A receptor were conducted according to the methods previously described (Lewgowd et al., [2011]).

Setting [2] is: Human immunodeficiency virus 1, MT4, 96 h.

Where two headings read alike, the source gives them in different places. A value given as a limit tells only on which side of the number the result lay.

Experimental findings from PMC3905170, “Synthesis and structure evaluation of new complex butylarylpiperazin-1-yl derivatives” (Medicinal Chemistry Research, 2013) are described below.

Consider `O=C1Nc2ccc(Cl)cc2[C@@](C#CC2CC2)(C(F)(F)F)O1` [Efavirenz, reference compound], for which, in data set [1], the CC50 at 96 h was 45 µM. In addition, the EC50 with HIV-1IIIB (setting [2]) was 0.002 µM.
In the data set on MT-4 cells, `O=c1c2ccccc2c2c(-c3ccccc3)c3c(=O)n(CCCCN4CCN(c5ccccc5Cl)CC4)c(=O)c3c(-c3ccccc3)c12` [Compound 18, 2-{4-[4-(2-Chlorophenyl)piperazin-1-yl]butyl}-4,10-diphenyl-1H,2H,3H,5H-indeno[1,2-f]isoindole-1,3,5-trione] registered a CC50 greater than 100 µM. Further, in the data set with HIV-1IIIB, the EC50 is greater than 100 µM.
In turn, `O=c1[nH]c(=O)c2c(-c3ccccc3)c3c(c(-c4ccccc4)c12)c(=O)c1ccccc13` [Compound 10, 4,10-diphenyl-1H,2H,3H,5H-indeno[1,2-f]isoindole-1,3,5-trione] yielded a CC50 with MT-4 cells of 9 µM. In addition, the EC50 with HIV-1IIIB was greater than 9 µM.
As to `O=C1C2C(C(=O)N1CCCCN1CCN(c3ccccc3F)CC1)C1(c3ccccc3)C(=O)C2(c2ccccc2)c2c1c1ccccc1c1ccccc21` (stereo not drawn) [Compound 7, 19-(4-(4-(2-Fluorophenyl)piperazin-1-yl)butyl)-1,16-diphenyl-19-azahexacyclo-[14.5.1.0^2,15.0^3,8.0^9,14.0^17,21]docosa-2,3,5,7,8,9,11,13,14-nonaene-18,20,22-trione], the melting point lay within 205 to 207 °C. The CC50 at 96 h in data set [1] is greater than 100 µM. The EC50 in the data set on HIV-1IIIB (setting [2]) is greater than 100 µM.
As to `COc1ccccc1N1CCN(CCCCN2C(=O)C3C(C2=O)C2(c4ccccc4)C(=O)C3(c3ccccc3)c3c2c2ccccc2c2ccccc32)CC1` (stereo not drawn) [Compound 4, 19-(4-(4-(2-(Methyloxy)phenyl)piperazin-1-yl)butyl)-1,16-diphenyl-19-azahexa-cyclo[14.5.1.0^2,15.0^3,8.0^9,14.0^17,21]docosa-2,3,5,7,8,9,11,13,14-nonaene-18,20,22-trione], the melting point was 197 to 200 °C. Moreover, the “activity to the 5-HT1A receptor” value on 5-HT1A receptor is listed as “moderate activity”.
Compound `O=c1c2ccccc2c2c(-c3ccccc3)c3c(=O)n(CCCCN4CCN(c5ccc(Cl)cc5)CC4)c(=O)c3c(-c3ccccc3)c12` [Compound 17, 2-{4-[4-(4-Chlorophenyl)piperazin-1-yl]butyl}-4,10-diphenyl-1H,2H,3H,5H-indeno[1,2-f]isoindole-1,3,5-trione] yielded a CC50 with MT-4 cells greater than 100 µM. In addition, in the data set with HIV-1IIIB, the EC50 was greater than 100 µM.
`COc1ccccc1N1CCN(CCCCn2c(=O)c3c(-c4ccccc4)c4c(=O)c5ccccc5c4c(-c4ccccc4)c3c2=O)CC1` [Compound 19, 2-{4-[4-(2-metoxyphenyl)piperazin-1-yl]butyl}-4,10-diphenyl-1H,2H,3H,5H-indeno[1,2-f]isoindole-1,3,5-trione]: the melting point was in the range of 245 to 246 °C. The CC50 at 96 h in data set [1] was greater than 100 µM. The EC50 in the data set with HIV-1IIIB (setting [2]) was greater than 100 µM.
Consider “2-{4-[4-(4-Fluorophenyl)piperazin-1-yl]butyl}-4,10-diphenyl-1H,2H,3H,5H-indeno[1,2-f]isoindole-1,3,5-trione [Compound 16]”, for which the CC50 in the data set with MT-4 cells was greater than 100 µM. Moreover, the EC50 in the data set on HIV-1IIIB was greater than 100 µM.
“4,10-Diphenyl-2-[4-(4-{2-[2-(trifluoromethyl)phenyl]ethyl}piperazin-1-yl)butyl]-1H,2H,3H,5H-indeno[1,2-f]isoindole-1,3,5-trione [Compound 14]” came in with a CC50 in the data set on MT-4 cells of 9 µM. In addition, the EC50 with HIV-1IIIB is greater than 9 µM.
The compound “4,10-Diphenyl-2-{4-[4-(pyridin-2-yl)piperazin-1-yl]butyl}-1H,2H,3H,5H-indeno[1,2-f]isoindole-1,3,5-trione [Compound 13]” yielded a CC50 in the data set on MT-4 cells greater than 100 µM. Further, in the data set with HIV-1IIIB, the EC50 is greater than 100 µM.
For `CC(=O)c1ccc(N2CCN(CCCCN3C(=O)C4C(C3=O)C3(c5ccccc5)C(=O)C4(c4ccccc4)c4c3c3ccccc3c3ccccc43)CC2)cc1` (stereo not drawn) [Compound 8, 19-(4-(4-(4-Acetylphenyl)piperazin-1-yl)butyl)-1,16-diphenyl-19-azahexacyclo-[14.5.1.0^2,15.0^3,8.0^9,14.0^17,21]docosa-2,3,5,7,8,9,11,13,14-nonaene-18,20,22-trione], the melting point is 202 to 204 °C. The CC50 at 96 h in data set [1] was greater than 100 µM. The EC50 with HIV-1IIIB (setting [2]) is greater than 100 µM.
For the compound “4,10-Diphenyl-2-[4-(4-phenylpiperazin-1-yl)butyl]-1H,2H,3H,5H-indeno[1,2-f]isoindole-1,3,5-trione [Compound 12]”, in the data set on MT-4 cells, the CC50 is greater than 100 µM. Further, the EC50 in the data set with HIV-1IIIB was greater than 100 µM.
Turning to `O=c1cccc2cc3c(-c4ccccc4)c4c(=O)n(CCCCBr)c(=O)c4c(-c4ccccc4)c3c1-2`, the melting point lay within 241 to 242 °C.
The compound “2-{4-[4-(2-Fluorophenyl)piperazin-1-yl]butyl}-4,10-diphenyl-1H,2H,3H,5H-indeno[1,2-f]isoindole-1,3,5-trione [Compound 15]” had a CC50 with MT-4 cells greater than 100 µM. In addition, in the data set with HIV-1IIIB, the EC50 is greater than 100 µM.
The compound `O=C1C2C(C(=O)N1CCCCN1CCN(c3ccccn3)CC1)C1(c3ccccc3)C(=O)C2(c2ccccc2)c2c1c1ccccc1c1ccccc21` (stereo not drawn) [Compound 3, 1,16-Diphenyl-19-(4-(4-pyridin-2-ylpiperazin-1-yl)butyl)-19-azahexacyclo-[14.5.1.0^2,15.0^3,8.0^9,14.0^17,21]docosa-2,3,5,7,8,9,11,13,14-nonaene-18,20,22-trione] returned a melting point of 200 to 203 °C. The CC50 at 96 h in data set [1] worked out at 90 µM. In the data set with HIV-1IIIB (setting [2]), the EC50 is greater than 90 µM.
As for `O=C1C2C(C(=O)N1CCCCN1CCN(c3ccc(Cl)cc3)CC1)C1(c3ccccc3)C(=O)C2(c2ccccc2)c2c1c1ccccc1c1ccccc21` (stereo not drawn) [Compound 6, 19-(4-(4-(4-Chlorophenyl)piperazin-1-yl)butyl)-1,16-diphenyl-19-azahexacyclo-[14.5.1.0^2,15.0^3,8.0^9,14.0^17,21]docosa-2,3,5,7,8,9,11,13,14-nonaene-18,20,22-trione], the melting point is 220 to 221 °C. Besides, the CC50 at 96 h in data set [1] was greater than 100 µM. In the data set with HIV-1IIIB (setting [2]), the EC50 is greater than 100 µM.
